Results as given in publication PMC12023779, “Characterization, thermostable mechanism, and molecular docking of a novel glucose-tolerant β-glucosidase/β-galactosidase from the GH1 family isolated from Rehai hot spring” (Frontiers in Microbiology, 2025).

Experiments:
[1] = test system: T1, Y50Bg4; test: glucose oxidase-peroxidase assay, Michaelis-Menten non-linear fit; assay type: biochemical, uncultured bacterium; conditions: sodium citrate buffer pH 6.0, 60°C; 0-20 mg/mL substrate
T1 construct: expressed in E. coli DH5alpha, Ni-NTA purified; primers encode MKIDGGLKC... at N-end and ...EIIKKYKE at C-end
Text: glucose oxidase-peroxidase assay, Michaelis-Menten non-linear fit on Y50Bg4

[2] = test system: T1, Y50Bg4; test: p-nitrophenol release at […] nm, Michaelis-Menten non-linear fit; assay type: biochemical, uncultured bacterium; conditions: sodium citrate buffer pH 6.0, 60°C; 0-2 mM substrate

OC[C@H]1O[C@@H](O[C@H]2[C@H](O)[C@@H](O)C(O)O[C@@H]2CO)[C@H](O)[C@@H](O)[C@@H]1O (some centres unmarked) [cellobiose]
Km [1]: 4.69 mg/mL

O=[N+]([O-])c1ccc(O[C@@H]2O[C@H](CO)[C@@H](O)[C@H](O)[C@H]2O)cc1 [p-nitrophenyl-β-D-glucopyranoside]
Km [2]: 530 µM
